The data set is described as follows: Aerodynamic assessment of fine particles of the inhalation powder composition (modified Anderson Cascade Impactor, Genuair inhaler). The format is physicochemical. Conditions: dry powder blend of the polymorph with lactose carrier, no additive material, ACI 60 L/min, fine particles <5 μm, HPLC. The source says:
The process for manufacturing the pharmaceutical composition comprising a polymorphic salt of compound (I) (Type α, Type β or Hydrate) and a carrier is as follows: • 1. 20% by weight of lactose used as a carrier was blended with one polymorph (Type α, Type β or Hydrate). The resulting mixture was sieved and mixed again. • 2. The remaining 80% by weight of lactose was sieved and added to the mixture of Step 1. The whole mixture was blended, sieved and blended again resulting in the final inhalation powder blend.
The test on the aerodynamic assessment of the fine particles (FPD<5 μm) of the inhalation powder composition is carried out in combination with the Genuair® inhaler. The Fine Particle Fraction of the three formulations was calculated on basis of the principles of the aerodynamic assessment of fine particles according to the Current European pharmacopoeia (Ph. Eur. Chapter 2.9.18) and USP<601> by the aid of aerodynamic impactor analyses using a modified Anderson Cascade Impactor (ACI), 60 L/min-configuration including pre-separator, stage-1, -0, and stage 1-7 (filter stage). The content of the active ingredient on each stage of the impactor is determined my means of HPLC.
The fine particle dose (FPD<5 μm) is calculated based on Ph. Eur. Chapter 2.9.18 and USP<601> by point to point interpolation per dosage. […]
To obtain the Fine Particle Dose, the cumulative percent value (y-value) at which the line of data plot crosses 5 μm mark is determined. […] FPD [μg]=yFPD·F/100% • FPD=Fine particle dose<5 μm of the active ingredient per dosage [μg]. • yFPD=y-value of cumulative percentage of mass at a particle size of 5 μm evaluated by linear point to point interpolation [%]. • F=sum of mass on stage-1-stage 7 (filter) per dosage [μg].
The Fine Particle Fraction (FPF) is the percentage of the emitted dose that the Fine Particel Dose represents and is calculated as follows: FPF [%]=(FPD [μg]/Total sum [μg])*100 • Total sum=the amount of drug substance in the respective impactor (Adapter-Filter).

Regarding `O=c1ccc2c([C@@H](O)CNCCCCCCOCC(F)(F)c3ccccc3)ccc(O)c2[nH]1` [Comparative Example, 5-(2-{[6-(2,2-difluoro-2-phenylethoxy)hexyl]amino}-1(R)-hydroxyethyl)-8-hydroxyquinolin-2(1H)-one, heminapadisylate, reference compound], the “FPF (%)” value was 42.2%.
As to `O=c1ccc2c([C@@H](O)CNCCCCCCOCC(F)(F)c3ccccc3)ccc(O)c2[nH]1` [Polymorph Hydrate, 5-(2-{[6-(2,2-difluoro-2-phenylethoxy)hexyl]amino}-1(R)-hydroxyethyl)-8-hydroxyquinolin-2(1H)-one, heminapadisylate, hemihydrate], the “FPF (%)” value (hemihydrate) is reported as 49.8%.
As to `O=c1ccc2c([C@@H](O)CNCCCCCCOCC(F)(F)c3ccccc3)ccc(O)c2[nH]1` [Polymorph Type β, 5-(2-{[6-(2,2-difluoro-2-phenylethoxy)hexyl]amino}-1(R)-hydroxyethyl)-8-hydroxyquinolin-2(1H)-one, heminapadisylate], the “FPF (%)” value turned out to be 49.3%.

The record behind these values is patent publication US9346759B2, “Polymorphic crystal forms of 5-(2-{[6-(2,2-difluoro-2-phenylethoxy)hexyl]amino}-1-(R)-hydroxyethyl)-8-hydroxyquinolin-2(1H)-one, heminapadisytlate as agonist of the β2 adrenergic receptor” (ALMIRALL, S.A., priority 2012, dated 2016).
